# Experimental data published in BindingDB's records for doi:10.7270/Q2319T8T (The Scripps Research Institute Molecular Screening Center, 2007).
# pIC50: −log10 of the molar value.
# Biological target: Steroidogenic factor 1 (Homo sapiens, UniProt Q13285)
# Test: blockers of SF-1 LBD reporter transcription – cell-based, CHO-K1, Gal4-SF-1 LBD, luciferase luminescence, dose response (AID 600)
# Conditions: not given
# Sequence of Steroidogenic factor 1 (Q13285 whole entry, the tested form may be a part): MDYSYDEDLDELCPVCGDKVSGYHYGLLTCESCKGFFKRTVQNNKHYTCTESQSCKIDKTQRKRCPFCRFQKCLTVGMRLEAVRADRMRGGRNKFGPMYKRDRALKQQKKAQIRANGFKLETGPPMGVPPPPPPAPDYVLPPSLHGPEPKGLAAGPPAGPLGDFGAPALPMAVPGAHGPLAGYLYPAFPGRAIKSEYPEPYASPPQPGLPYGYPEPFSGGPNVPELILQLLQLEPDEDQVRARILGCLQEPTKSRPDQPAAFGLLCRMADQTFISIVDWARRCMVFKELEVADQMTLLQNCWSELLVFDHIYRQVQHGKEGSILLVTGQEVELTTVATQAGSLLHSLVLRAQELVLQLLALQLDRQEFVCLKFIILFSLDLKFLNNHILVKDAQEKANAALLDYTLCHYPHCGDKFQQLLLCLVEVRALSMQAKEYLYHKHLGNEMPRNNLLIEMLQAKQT
row,pIC50,SMILES
1,6.01,"CC[C@]1(O)CC2C[N@](CCc3c([nH]c4ccccc34)[C@@](C(=O)OC)(c3cc4c(cc3OC)N(C)[C@H]3[C@@](O)(C(=O)OC)[C@H](OC(C)=O)[C@]5(CC)C=CCN6CC[C@]43[C@@H]65)C2)C1 [(vinblastine) methyl 12-ethyl-4-[17-ethyl-17-hydroxy-13-methyloxycarbonyl-(13S,15R,17S)-1,11-diazatetracyclo[13.3.1.04,12.05,10]nonadeca-4(12),5,7,9-tetraen-13-yl]-10-hydroxy-5-methoxy-8-methyl-11-methylcarbonyloxy-(10S,11R,12R)-8,16-diazapentac sulfuric acid]"
2,5.07,Cc1cnc(NC(=O)CN2CCN(c3ccccn3)CC2)s1 [MLS000035284]
3,< 5.44,COc1ccc(C=Nn2nnc3ccccc32)cc1 [MLS000043825]
4,5.26,CS(=O)(=O)c1nc(-c2cccs2)cc(C(F)(F)F)n1 [MLS000044645]
5,5.16,CCn1c2ccccc2c2cc(NC(=O)CSc3nnnn3-c3ccccc3)ccc21 [MLS000051054]
6,< 5.44,CCSc1nnc(NC(=O)c2ccccn2)s1 [MLS000056851]
7,5.28,O=S(=O)(Nc1cccc2ncccc12)c1cccs1 [MLS000057468]
8,5.47,Cc1cc(C)n(-c2ccc3cccc(NS(C)(=O)=O)c3n2)n1 [MLS000062301]
9,< 4.96,CC1CCc2nc(NC(=O)c3ccco3)sc2C1 (centres undefined) [MLS000063711]
10,5.11,COc1cc(C2Nc3cccc4cccc(c34)N2)cc(OC)c1OC(C)=O [MLS000078084]
11,5.09,Cc1cc(NC(=O)CCCS(=O)(=O)c2nc(-c3cccs3)cc(C(F)(F)F)n2)no1 [MLS000086269]
12,6.23,COCCNC(=O)CSCc1nc(-c2ccc(SC)cc2)oc1C [MLS000089367]
13,< 5.44,CN(C)c1ccc(-c2nc3ccccc3n2C)cc1 [MLS000089904]
14,5.52,O=c1cc(N2CCN(c3ccccc3)CC2)[nH]c(=O)n1C1CCCCC1 [MLS000094382]
15,5.06,CCCC(=O)N1CCN(c2ccc(NC(=O)c3cc4ccccc4o3)cc2Cl)CC1 [MLS000096729]
16,5.24,COc1ccc(C(=O)Nn2c(SCC(=O)NCc3ccco3)nc3ccccc3c2=O)cc1 [MLS000097349]
17,< 5.91,O=C(NCCOc1ccccc1)c1ccc2c(c1)OCO2 [MLS000100028]
18,5.62,CN(C)c1ccc(NC(=S)c2ccccn2)cc1 [MLS000111989]
19,< 5.44,Cc1cc(C=Nn2cnnc2)c(C)n1-c1ccc(OCc2ccc(F)cc2)cc1 [MLS000112167]
20,5.65,c1ccc(N=C2N=C(Nc3ccccn3)c3ccccc32)nc1 [N-pyridin-2-yl-3-pyridin-2-yliminoisoindol-1-amine]
21,5.29,O=S1(=O)C=C(Sc2nc3cc(Cl)ccc3o2)c2ccccc21 [SMR000019512]
22,5.89,CCCCS(=O)(=O)/C=C\C=C/S(=O)(=O)CCCC [SMR000020833]
23,< 4.96,C/C(Cl)=C\Cn1c(NCCc2ccccc2)nc2c1c(=O)n(C)c(=O)n2C [SMR000044779]
24,5.46,c1ccc(-c2nc(N3CCCCCC3)c3ccccc3n2)nc1 [SMR000046752]
25,5.01,COCCn1c(C)cc(C(=O)COC(=O)c2[nH]nc3ccccc23)c1C [SMR000068187]
26,< 5.44,COc1cc(NS(=O)(=O)c2ccc(C)cc2)c2ncccc2c1 [SMR000071147]

# The remaining lines, values behind:
row,SMILES,pIC50
1,COc1cccc2c1C(=O)c1c(O)c3c(c(O)c1C2=O)C[C@@](O)(C(=O)CO)C[C@@H]3O[C@H]1C[C@H](N)[C@H](O)[C@H](C)O1 [MLS000028393],6.02
2,CCOc1cc(C(=O)CSc2nnc(CNc3ccc(Cl)cc3)o2)ccc1NC(=O)CC [MLS000032332],5.08
3,Nc1ccc(-c2nc3c(Cl)cc(N)cc3[nH]2)cc1 [MLS000034140],5.29
4,Cc1cccc(NC(=O)CSc2nnc(-c3cc(C)n(-c4ccccc4)c3C)o2)c1C [MLS000036049],< 5.91
5,COc1ccc(CCNc2ncnc3c2oc2ccccc23)cc1OC [MLS000041708],5.03
6,CS(=O)(=O)c1nc(-c2ccccc2)cc(C(F)(F)F)n1 [MLS000044644],5.29
7,CCOc1ccccc1-n1c(SCC(=O)Nc2ccc(CC)cc2)nc2nnc(C)c-2c1N [MLS000047091],5.22
8,COc1cc2nc(CN3CC=C(c4ccccc4)CC3)nc(O)c2cc1OC [MLS000053305],5.89
9,CCOC(=O)c1c(C)[nH]c(C(=O)C(C)OC(=O)c2cccc(OCc3c(C)noc3C)c2)c1C (centres undefined) [MLS000054923],5.08
10,O=C(NC1=NCCS1)C1COc2ccccc2O1 (centres undefined) [MLS000056062],5.28
11,CC(=O)Nc1ccccc1OCC(=O)c1cc(C)n(Cc2cccs2)c1C [MLS000056239],5.56
12,COc1ccc(CCNc2nnc(Sc3nnnn3-c3ccccc3)s2)cc1OC [MLS000056567],5.29
13,CC(=O)Nc1ccc(SCC(=O)c2cc(C)n(Cc3cccs3)c2C)cc1 [MLS000058142],5.40
14,c1cncc(-c2nnc(SCc3nc4ccccc4[nH]3)o2)c1 [MLS000062679],< 4.00
15,O=C(Nc1ccc(N2CCOCC2)cc1)c1cnsn1 [MLS000063695],5.39
16,COc1cc2c(cc1NC(=O)CSc1nnnn1-c1ccccc1)oc1ccccc12 [MLS000082182],5.22
17,Cc1nc(N2CCN(c3ccccc3)CC2)nc(O)c1Cc1cccc2ccccc12 [MLS000084491],< 5.44
18,O=C(CSc1nnnn1-c1ccccc1)Nc1nsc(-c2ccc(Cl)cc2)n1 [MLS000085595],5.31
19,CC1(C)COCN1S(=O)(=O)c1ccc(C(=O)Nc2nnc(-c3ccc(Cl)s3)o2)cc1 [MLS000086346],5.12
20,COc1ccc(-c2nc(CSCC(=O)NCc3ccco3)c(C)o2)cc1 [MLS000089353],5.23

row,SMILES,pIC50
1,O=C(NCc1ccco1)c1ccc2nc3sc4c(c3c(=O)n2c1)CCCC4 [MLS000091875],< 5.44
2,O=C(NCCCN1CCOCC1)c1csc2c1CCCC2 [MLS000093382],< 4.00
3,O=c1cc(N2CCN(c3cccc(Cl)c3)CC2)[nH]c(=O)n1C1CCCCC1 [MLS000094380],6.50
4,O=C(Nc1nc(-c2ccc(Cl)s2)cs1)c1ccncc1 [MLS000098514],< 4.00
5,O=C(Nc1ccccc1)c1cccc(-c2nnc(-c3ccccc3)o2)c1 [MLS000100081],5.38
6,COc1ccc(-n2ncc3c(N(C)C4CCCCC4)ncnc32)cc1 [MLS000100813],6.53
7,Cc1cccc(-n2ncc3c(N(C)C4CCCCC4)ncnc32)c1 [MLS000100814],< 5.44
8,O=C(Nc1nc2cc3c(cc2s1)OCO3)C1=COCCO1 [MLS000103798],5.43
9,COc1ccc(C(NC(C)=O)c2ccc3cccnc3c2O)c(OC)c1 (centres undefined) [MLS000109349],< 5.44
10,Cc1cc(C=Nn2cnnc2)c(C)n1-c1ccc(OCc2ccccc2F)cc1 [MLS000112180],< 5.44
11,Cc1sc(NC(=O)c2ccco2)c(C(c2cccnc2)N2CCN(c3ccc(F)cc3)CC2)c1C (centres undefined) [MLS000114428],< 4.96
12,"O=C(Nc1nc2ccccc2[nH]1)c1ccccc1F [N-1,3-dihydro-2H-benzimidazol-2-ylidene-2-fluorobenzamide]",5.81
13,"N#Cc1c(NC(=O)CSc2nc[nH]n2)sc2c1CCCCC2 [N-(3-cyano-5,6,7,8-tetrahydro-4H-cyclohepta[b]thien-2-yl)-2-(1H-1,2,4-triazol-3-ylthio)acetamide]",7.01
14,c1ccc2nc(-c3nc4ccccc4[nH]3)ccc2c1 [SMR000008748],5.62
15,CN1C2C=C3C(C#N)=C(N)C(C#N)(C#N)[C@@H](c4ccc(Cl)cc4)[C@@H]3C1CC2 (some centres undefined) [SMR000038778],5.47
16,c1ccc2c(c1)CCN(c1ncnc3c1[nH]c1ccccc13)C2 [SMR000039631],5.04
17,Cc1ccc2c(c1)[nH]c1c(N3CCN(Cc4ccccc4)CC3)ncnc12 [SMR000044826],< 5.44
18,CC(C)(C)c1ccc(-c2cc(N)[nH]n2)cc1 [SMR000095263],5.28
19,CSC1=NC2=C(C(=O)CC(C)(C)C2)C(c2ccc(Cl)cc2)C1C#N (centres undefined) [SMR000102109],4.67

# Same assay, conditions: inactive by the depositor's call
row,pIC50,SMILES
1,4.81,CC(=O)c1sc(NC(=O)C2(F)C(F)(F)C(F)(F)C(F)(F)C(F)(F)C2(F)F)nc1C [MLS000040071]
2,4.94,Cc1ccc(NC(=O)Cc2nn(C)c(=O)c3ccccc23)cc1F [MLS000047015]
3,4.89,Cn1nc(CC(=O)Nc2ccc3c(c2)OCCO3)c2ccccc2c1=O [MLS000047020]
4,4.48,COc1ccccc1OCC(=O)c1[nH]c(C)c(C(C)=O)c1C [MLS000053479]
5,4.88,Cc1cc(NC(=O)c2ccc3c(c2)OCCO3)no1 [MLS000064124]
6,4.98,CCN(C(=O)c1ccc(C(C)(C)C)cc1)c1nnc(Cn2nnc3ccccc32)s1 [MLS000072751]
7,4.87,Cc1ccnc(SCC(=O)Nc2sc3c(c2C#N)CCCC3)n1 [MLS000077260]
8,4.81,c1ccc(CN2CCN(c3ncnc4c3[nH]c3ccccc34)CC2)cc1 [MLS000078384]
9,4.44,COc1ccc(OC)c(NS(=O)(=O)c2ccc(N3CCCC3=O)cc2)c1 [MLS000079343]
10,4.89,CCOc1cc(C(=O)N2CCc3cc(OC)c(OC)cc3C2)ccc1OC(F)F [MLS000083614]
11,4.85,CC(=O)c1c(C)[nH]c(C(=O)Nc2ccc(C)cn2)c1C [SMR000026816]

# Continued, molecule first:
row,SMILES,pIC50
1,COc1ccc(CCNc2nc(C)nc3c2oc2ccccc23)cc1OC [MLS000040997],5.00
2,CCOc1ccc(-c2cc(CCCC(=O)Nc3cc(OC)ccc3OC)no2)cc1 [MLS000045930],4.90
3,N#C/C(=C\c1ccc(O)c(O)c1)C(=O)NCCCc1ccccc1 [MLS000069704],4.87
4,Fc1ccc2[nH]c3c(N4CCSCC4)ncnc3c2c1 [MLS000078401],4.93
5,O=S(=O)(NCc1cn2ccsc2n1)c1ccc(Oc2ccccc2)cc1 [MLS000094195],4.46
6,O=C(Nc1nnc(C2CC2)o1)c1ccc(S(=O)(=O)N2CCCc3ccccc32)cc1 [MLS000116109],4.86
7,"Cc1ccc(-c2csc(N3CCC(NS(=O)(=O)c4ccc5c(c4)OCCO5)CC3)n2)cc1 [N-[1-[4-(4-methylphenyl)-1,3-thiazol-2-yl]piperidin-4-yl]-2,3-dihydro-1,4-benzodioxine-6-sulfonamide]",4.95
8,C=CCOC(=O)c1[nH]c2c(c1C)C(=O)CC(c1cc(OC)c(OC)c(OC)c1)C2 (centres undefined) [SMR000093465],4.74
